From patent EP3431484A1, “A FLUORESCENT CYCLIC DINUCLEOTIDE AND ITS USE IN METHODS OF IDENTIFYING SUBSTANCES HAVING AN ABILITY TO MODULATE THE CGAS/STING PATHWAY” (Ludwig-Maximilians-Universität München, priority 2017, dated 2019)

System: human truncated STING (hSTING^cd), cytosolic domain aa 139-379, R220H+H232R variant
Details: 200 µM hSTING^cd, 0-150 µM competitor; Figure 10d
Procedure: The quenching effect of STING on 2'3'fGAMP can be further used to search and compare STING-binding compounds. […] After second round of incubation for 15 min the samples were measured in 96-well black non-binding PS plates (Greiner Bio-One) on Tecan infinite M1000 (λex=305 nm, λem=363 nm, gain 140, settle time 10ms) at 25°C.

Nc1nc2c(ncn2[C@@H]2O[C@@H]3COP(=O)(O)O[C@H]4[C@@H](O)[C@H](n5cnc6c(=O)[nH]c(N)nc65)O[C@@H]4COP(=O)(O)O[C@H]3[C@H]2O)c(=O)[nH]1 [c-di-GMP]
affinity towards STING, compared by slope of fluorescence increase (s1, s2): lower affinity
